Patent US11325889B2, “Substituted 3-((3-aminophenyl)amino)piperidine-2,6-dione compounds, compositions thereof, and methods of treatment therewith” (Celgene Corporation, priority 2018, dated 2022)

Target: T1, AR protein in VCaP cells (Homo sapiens, UniProt P10275)
T1 construct: endogenous in cells; host or cells: VCaP cells
T1 sequence (P10275 1-920): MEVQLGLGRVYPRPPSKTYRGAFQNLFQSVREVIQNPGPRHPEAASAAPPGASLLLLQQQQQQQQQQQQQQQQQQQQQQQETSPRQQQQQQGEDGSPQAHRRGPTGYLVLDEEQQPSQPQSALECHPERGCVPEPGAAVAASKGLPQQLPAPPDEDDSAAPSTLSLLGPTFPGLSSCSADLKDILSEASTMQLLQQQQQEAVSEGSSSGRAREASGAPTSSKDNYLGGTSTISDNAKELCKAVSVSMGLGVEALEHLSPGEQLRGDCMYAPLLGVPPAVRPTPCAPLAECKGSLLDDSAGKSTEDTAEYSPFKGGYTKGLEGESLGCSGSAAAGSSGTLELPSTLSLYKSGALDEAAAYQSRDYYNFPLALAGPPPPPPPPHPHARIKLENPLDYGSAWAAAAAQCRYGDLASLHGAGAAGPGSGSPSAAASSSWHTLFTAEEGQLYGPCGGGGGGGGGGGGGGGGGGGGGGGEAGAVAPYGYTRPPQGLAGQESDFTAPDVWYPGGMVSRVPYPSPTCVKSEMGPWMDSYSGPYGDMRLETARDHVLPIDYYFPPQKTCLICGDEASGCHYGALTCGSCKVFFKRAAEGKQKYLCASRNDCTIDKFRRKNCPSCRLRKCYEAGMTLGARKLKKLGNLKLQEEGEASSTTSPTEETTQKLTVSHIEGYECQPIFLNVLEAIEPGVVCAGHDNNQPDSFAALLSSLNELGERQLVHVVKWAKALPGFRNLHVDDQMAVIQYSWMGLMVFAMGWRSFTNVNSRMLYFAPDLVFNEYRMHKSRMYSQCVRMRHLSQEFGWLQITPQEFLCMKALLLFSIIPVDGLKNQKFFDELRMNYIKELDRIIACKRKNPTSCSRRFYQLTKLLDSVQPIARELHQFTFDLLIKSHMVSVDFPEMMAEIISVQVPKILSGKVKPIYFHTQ
Test: VCAP AR Degradation Assay (AR ELISA, 24 h)
Format: cell-based
Conditions: for Y (lowest measured AR level normalized to DMSO control): AR degradation efficiency; for DC50: concentration of compound when AR level = 50% of DMSO control, read-out: DC50
Protocol: VCAP AR Degradation Assay.
Test compounds were pre-dispensed into a Corning CellBind 96-well clear bottom plate (Cat #3300) using an acoustic dispenser to make a 10-point concentration series at 1:3 dilution for each compound. The final top concentration of each compound was […]. DMSO at a final concentration of 0.1% was used as a control. VCaP cells cultured in DMEM with 8% fetal bovine serum (FBS) were seeded at 50K cells per well in a 200 μL volume into the compound plate and incubated at 37° C. in a CO2 incubator for 24 h. The medium was carefully removed from the cells and the plate was placed on ice. One hundred […] of ice-cold 1× cell lysis buffer from Cell Signaling Technologies (Cat #9803) was added to each well of the cells and the plate was incubated at 4° C. on a shaker for 1 h. Fifteen […] of cell lysate was used for AR ELISA detection using a PathScan Total Sandwich AR ELISA kit (Cell Signaling Technology, Cat #12580). AR levels in compound-treated wells were normalized to that of DMSO control and expressed as percent of control (PoC) (y). A Four Parameter Logistic Model (Sigmoidal Dose-Response Model) was used to determine the compound's DC50, and EC50, using the following equation: y=(A+((B−A)/(1+((C/x)^D)))) • A=YMin (lowest AR level normalized to DMSO control in response to compound • treatment, as determined by curve fit) • B=YMax (maximum AR level as determined by curve fit) • C=EC50 • D=Hill Slope • x=compound concentration • EC50=the concentration of compound when y=(YMax−YMin)/2 • DC50=the concentration of the compound when y=50% of DMSO control (50% AR degradation) • y=AR protein level normalized to DMSO control
The lowest measured AR level normalized to DMSO control in response to compound treatment, termed Y value, was used to characterize the compound-mediated AR degradation efficiency.

| SMILES | Y (lowest measured AR level normalized to DMSO control) | DC50 [nM] |
| --- | --- | --- |
| CC(C)c1cc(N2C(=S)N(c3ccc(C#N)c(C(F)(F)F)c3)C(=O)C2(C)C)cnc1OCC[C@H]1C[C@@H](C)N(CC(=O)Nc2cccc(NC3CCC(=O)NC3=O)c2)[C@@H](C)C1 (stereo partly drawn) [Cmpd 94, 2-((2S,4r,6R)-4-(2-((5-(3-(4-cyano-3-(trifluoromethyl)phenyl)-5,5-dimethyl-4-oxo-2-thioxoimidazolidin-1-yl)-3-isopropylpyridin-2-yl)oxy)ethyl)-2,6-dimethylpiperidin-1-yl)-N-(3-((2,6-dioxopiperidin-3-yl)amino)phenyl)acetamide] | ** (25%<Y<=35%) | 500 to 1000 |
| CCc1cc(N2C(=S)N(c3ccc(C#N)c(C(F)(F)F)c3)C(=O)C23CCC3)ccc1OCCC1CCN([C@H](C)C(=O)Nc2cccc(NC3CCC(=O)NC3=O)c2)CC1 (stereo partly drawn) [Cmpd 60, (2R)-2-(4-(2-(4-(7-(4-cyano-3-(trifluoromethyl)phenyl)-8-oxo-6-thioxo-5,7-diazaspiro[3.4]octan-5-yl)-2-ethylphenoxy)ethyl)piperidin-1-yl)-N-(3-(2,6-dioxopiperidin-3-ylamino)phenyl)propanamide] | ** (25%<Y<=35%) | 100 to 500 |
| CCc1cc(N2C(=S)N(c3ccc(C#N)c(C(F)(F)F)c3)C(=O)C2(C)C)ccc1OCCC1CCN([C@@H](C)C(=O)Nc2cccc(NC3CCC(=O)NC3=O)c2)CC1 (stereo partly drawn) [Cmpd 41, (2S)-2-(4-(2-(4-(3-(4-cyano-3-(trifluoromethyl)phenyl)-5,5-dimethyl-4-oxo-2-thioxoimidazolidin-1-yl)-2-ethylphenoxy)ethyl)piperidin-1-yl)-N-(3-(2,6-dioxopiperidin-3-ylamino)phenyl)propanamide] | * (0<Y<=25%) | < 100 |
| CCc1cc(N2C(=S)N(c3ccc(C#N)c(C(F)(F)F)c3)C(=O)C23CCC3)ccc1OCCC1CCN(CC(=O)Nc2cccc(NC3CCC(=O)NC3=O)c2)CC1 (centres unmarked) [Cmpd 43, 2-(4-(2-(4-(7-(4-cyano-3-(trifluoromethyl)phenyl)-8-oxo-6-thioxo-5,7-diazaspiro[3.4]octan-5-yl)-2-ethylphenoxy)ethyl)piperidin-1-yl)-N-(3-(2,6-dioxopiperidin-3-ylamino)phenyl)acetamide] | * (0<Y<=25%) | < 100 |
| CCc1cc(N2C(=S)N(c3ccc(C#N)c(C(F)(F)F)c3)C(=O)C2(C)C)ccc1OCCC1CCN(CC(=O)Nc2cc(Cl)cc(NC3CCC(=O)NC3=O)c2)CC1 (centres unmarked) [Cmpd 20, N-(3-chloro-5-(2,6-dioxopiperidin-3-ylamino)phenyl)-2-(4-(2-(4-(3-(4-cyano-3-(trifluoromethyl)phenyl)-5,5-dimethyl-4-oxo-2-thioxoimidazolidin-1-yl)-2-ethylphenoxy)ethyl)piperidin-1-yl)acetamide] | * (0<Y<=25%) | < 100 |
| CCc1cc(N2C(=S)N(c3cnc(C#N)c(C(F)(F)F)c3)C(=O)C23CCC3)ccc1OCCC1CCN([C@H](C)C(=O)Nc2cc(Cl)cc(NC3CCC(=O)NC3=O)c2)CC1 (stereo partly drawn) [Cmpd 36, (2R)-N-(3-chloro-5-(2,6-dioxopiperidin-3-ylamino)phenyl)-2-(4-(2-(4-(7-(6-cyano-5-(trifluoromethyl)pyridin-3-yl)-8-oxo-6-thioxo-5,7-diazaspiro[3.4]octan-5-yl)-2-ethylphenoxy)ethyl)piperidin-1-yl)propanamide] | * (0<Y<=25%) | 100 to 500 |
| CC1(C)C(=O)N(c2ccc(C#N)c(C(F)(F)F)c2)C(=S)N1c1ccc(OCCC2CCN(CC(=O)Nc3cc(Cl)cc(NC4CCC(=O)NC4=O)c3)CC2)c(CCF)c1 (centres unmarked) [Cmpd 33, N-(3-chloro-5-(2,6-dioxopiperidin-3-ylamino)phenyl)-2-(4-(2-(4-(3-(4-cyano-3-(trifluoromethyl)phenyl)-5,5-dimethyl-4-oxo-2-thioxoimidazolidin-1-yl)-2-(2-fluoroethyl)phenoxy)ethyl)piperidin-1-yl)acetamide] | * (0<Y<=25%) | < 100 |
| CCc1cc(N2C(=S)N(c3cnc(C#N)c(C(F)(F)F)c3)C(=O)C2(C)C)ccc1OCCC1CCN(CC(=O)Nc2cc(NC3CCC(=O)NC3=O)ccc2F)CC1 (centres unmarked) [Cmpd 15, 2-(4-(2-(4-(3-(6-cyano-5-(trifluoromethyl)pyridin-3-yl)-5,5-dimethyl-4-oxo-2-thioxoimidazolidin-1-yl)-2-ethylphenoxy)ethyl)piperidin-1-yl)-N-(5-(2,6-dioxopiperidin-3-ylamino)-2-fluorophenyl)acetamide] | * (0<Y<=25%) | < 100 |
| CCc1cc(N2C(=S)N(c3cnc(C#N)c(C(F)(F)F)c3)C(=O)C2(C)C)ccc1OCCC1CCN(CC(=O)Nc2cc(Cl)cc(NC3CCC(=O)NC3=O)c2)CC1 (centres unmarked) [Cmpd 13, N-(3-chloro-5-(2,6-dioxopiperidin-3-ylamino)phenyl)-2-(4-(2-(4-(3-(6-cyano-5-(trifluoromethyl)pyridin-3-yl)-5,5-dimethyl-4-oxo-2-thioxoimidazolidin-1-yl)-2-ethylphenoxy)ethyl)piperidin-1-yl)acetamide] | * (0<Y<=25%) | < 100 |
| CCc1cc(N2C(=S)N(c3cnc(C#N)c(C(F)(F)F)c3)C(=O)C23CCC3)ccc1OCCC1CCN([C@@H](C)C(=O)Nc2cc(NC3CCC(=O)NC3=O)ccc2F)CC1 (stereo partly drawn) [Cmpd 85, (2S)-2-(4-(2-(4-(7-(6-cyano-5-(trifluoromethyl)pyridin-3-yl)-8-oxo-6-thioxo-5,7-diazaspiro[3.4]octan-5-yl)-2-ethylphenoxy)ethyl)piperidin-1-yl)-N-(5-(2,6-dioxopiperidin-3-ylamino)-2-fluorophenyl)propanamide] | * (0<Y<=25%) | 100 to 500 |
| CCc1cc(N2C(=S)N(c3ccc(C#N)c(C(F)(F)F)c3)C(=O)C2(C)C)ccc1OCCC1CCN(CC(=O)Nc2cccc(NC3CCC(=O)NC3=O)c2)CC1 (centres unmarked) [Cmpd 17, 2-(4-(2-(4-(3-(4-cyano-3-(trifluoromethyl)phenyl)-5,5-dimethyl-4-oxo-2-thioxoimidazolidin-1-yl)-2-ethylphenoxy)ethyl)piperidin-1-yl)-N-(3-(2,6-dioxopiperidin-3-ylamino)phenyl)acetamide] | * (0<Y<=25%) | < 100 |
| CC1(C)C(=O)N(c2ccc(C#N)c(C(F)(F)F)c2)C(=S)N1c1ccc(OCC2CCN(CC(=O)Nc3cccc(NC4CCC(=O)NC4=O)c3)CC2)c(F)c1 (centres unmarked) [Cmpd 2, 2-(4-((4-(3-(4-cyano-3-(trifluoromethyl)phenyl)-5,5-dimethyl-4-oxo-2-thioxoimidazolidin-1-yl)-2-fluorophenoxy)methyl)piperidin-1-yl)-N-(3-(2,6-dioxopiperidin-3-ylamino)phenyl)acetamide] | ** (25%<Y<=35%) | 100 to 500 |
| CCc1cc(N2C(=S)N(c3cnc(C#N)c(C(F)(F)F)c3)C(=O)C2(C)C)ccc1OCC1CCN(CC(=O)Nc2cc(Cl)cc(NC3CCC(=O)NC3=O)c2)CC1 (centres unmarked) [Cmpd 81, N-(3-chloro-5-(2,6-dioxopiperidin-3-ylamino)phenyl)-2-(4-((4-(3-(6-cyano-5-(trifluoromethyl)pyridin-3-yl)-5,5-dimethyl-4-oxo-2-thioxoimidazolidin-1-yl)-2-ethylphenoxy)methyl)piperidin-1-yl)acetamide] | ** (25%<Y<=35%) | < 100 |
